Values quoted from earlier work as cited in patent US20120115828A1 (APEX LABORATORIES PRIVATE LIMITED, priority 2009, published 2012).

| Solubility in chloroform | Solubility in ethanol (95%) (ethanol (95%)) | Solubility in ether (ether) | Solubility in methanol (methanol) | Solubility in water | Solubility in alcohol (alcohol) | SMILES |
| --- | --- | --- | --- | --- | --- | --- |
| slightly soluble | slightly soluble | very slightly soluble | freely soluble | very slightly soluble | – | Clc1ccc(COC(Cn2ccnc2)c2ccc(Cl)cc2Cl)c(Cl)c1 (centres unmarked) [Miconazole Nitrate, 1-[2-(2,4-Dichlorophenyl)-2-[(2,4-dichlorophenyl)methoxy]ethyl]-1H-imidazole] |
| slightly soluble | – | – | – | insoluble | slightly soluble | CC(=O)OCC(=O)[C@@]1(O)CC[C@H]2[C@@H]3CCC4=CC(=O)CC[C@]4(C)[C@H]3[C@@H](O)C[C@@]21C [Hydrocortisone Acetate] |
